The record followed here is patent US20040204577A1, “Novel peptide-forming enzyme gene” (Ajinomoto Co., Inc., priority 2003, published 2004).

For test [1], the system named is peptide-forming enzyme (Mono S fraction enzyme). Description: Enzyme substrate specificity (1)-(10), (13), (14): peptide production. The format is biochemical, Empedobacter brevis. More on the design: key: +: those for which production was confirmed but which were unable to be quantified due to the absence of a standard; a trace amount. Conditions: 0.1 unit enzyme, 25° C. The method, then: (§1) Ester specificity was examined in the case of using L-amino acid ester for the carboxy component. 2 μl of the same enzyme fraction as used in Example 5 was added to 100 μl of 100 mM borate buffer (pH 9.0) containing the carboxy components indicated in Table 4 at 100 mM, 200 mM L-glutamine and 10 mM EDTA, and allowed to react at 25° C. for 2 hours. HCl represents hydrochloride in Table 4.
(§2) Peptide production was examined in the case of using L-alanine methyl ester for the carboxy component and using various L-amino acids for the amine component.
(§3) Peptide production was examined in the case of using various types of L-amino acid methyl esters for the carboxy component and using L-glutamine for the amine component. 2 μl of the same enzyme fraction as used in Example 5 was added to 100 μl of 100 mM borate buffer (pH 9.0) containing the L-amino acid methyl ester hydrochloride salts (AA-OMe.HCl) shown in Table 6 at 100 mM, 150 mM L-glutamine and 10 mM EDTA, and allowed to react at 25° C. for 3 hours. […] Furthermore, Tween-80 was added to the reaction system to a final concentration of 0.1% in the case of using L-Trp-OMe and L-Tyr-OMe.
(§4) Peptide production was examined in the case of using various L-amino acid methyl esters for the carboxy component and various L-amino acids for the amine component. 2 μl of the same enzyme fraction as used in Example 5 was added to 100 μl of 100 mM borate buffer (pH 9.0) containing the L-amino acid methyl ester hydrochloride salts (AA-OMe.HCl) shown in Table 7 at 100 mM, the L-amino acids shown in Table 7 at 150 mM and 10 mM EDTA, and allowed to react at 25° C. for 3 hours. The “tr” indicates a trace amount. Furthermore, Tween-80 was added to the reaction system to a final concentration of 0.1% in the case of using L-Trp-OMe.
Peptide production was examined in the case of using the L or D forms of various amino acid methyl esters for the carboxy component, and the L or D forms of various amino acids for the amine component. […]

For test [2] the test system is unchanged. The test is described as above. The format is biochemical, Empedobacter brevis. More on the design: key: +: those peptides for which production was confirmed but which were unable to be quantified due to the absence of a standard; a trace amount. Conditions: 0.1 unit enzyme, 25° C. On the procedure:
as §1, §2, §3, §4
Peptide production was examined in the case of using the L or D forms of various amino acid methyl esters for the carboxy component, and the L or D forms of various amino acids for the amine component. 2 μl of the same enzyme fraction as used in Example 5 was added to 100 μl of 100 mM borate buffer (pH 9.0) containing the various amino acid methyl ester hydrochloride salts (AA-OMe HCl) shown in Table 8 at 100 mM, the various amino acids shown in Table 8 at 150 mM and 10 mM EDTA, and allowed to react at 25° C. for 3 hours. The “tr” indicates a trace amount.
Peptide production was examined using various L-amino acid amides for the carboxy component, and various L-amino acids for the amine component. 2 μl of the same enzyme fraction as that used in Example 5 was added to 100 μl of 100 mM borate buffer (pH 9.0) containing the L-amino acid amide hydrochloride salt (M-NH2.HCl) shown in Table 9 at 100 mM, the L-amino acids shown in Table 9 at 150 mM and 10 mM EDTA, and allowed to react at 25° C. for 3 hours.
Peptide production was examined in the case of using various L-alanine methyl esters for the carboxy component and C-protected L-amino acids for the amine component. 2 μl of the same enzyme fraction as used in Example 5 was added to 100 μl of 100 mM borate buffer (pH 9.0) containing the L-alanine methyl ester hydrochloride hydrochloride salt (Ala-OMe.HCl) shown in Table 10 at 100 mM, the L-amino acid amide hydrochloride salts shown in Table 10 at 150 mM and 10 mM EDTA, and allowed to react at 25° C. for 3 hours.
Peptide production was examined in the case of using various amino acid methyl esters for the carboxy component and methylamine for the amine component. 2 μl of the same enzyme fraction as used in Example 5 was added to 100 μl of 100 mM borate buffer (pH 9.0) containing the amino acid methyl ester hydrochloride salt (M-OMe.HCl) shown in Table 11 at 100 mM, the methylamine shown in Table 11 at 150 mM and 10 mM EDTA, and allowed to react at 25° C. for 3 hours.
Peptide production was examined in the case of using […] for the carboxy component or β-amino acid for the amine component.

Where [3] appears, read: carboxy component 100 mM, amine component 150 mM, reaction time 2 hr.
The mark [4] stands for this setting: carboxy component 100 mM, amine component 150 mM, reaction time 3 hr.

Structures are written as SMILES. Where a SMILES comes first, the peptide text is derived from it. [ ]: non-standard residue; d: D form. The star is where a group is joined. 2Nal = N[C@@H](Cc1ccc2ccccc2c1)C(=O)O; Cha = N[C@@H](CC1CCCCC1)C(=O)O; Tle = CC(C)(C)[C@H](N)C(=O)O; Boc = CC(C)(C)OC(=O)*; tBu = CC(C)(C)*

In the case of `C[C@H](N)C(=O)N[C@@H](Cc1ccc2ccccc2c1)C(=O)O` [H-Ala-2-Nal-OH] (H-Ala-[2Nal]-OH), the Produced peptide entry in test [1] (carboxy component 20 mM, amine component 20 mM, reaction time 3 hr) is “+”.

For the compound `N[C@@H](CC1CCCCC1)C(=O)N[C@@H](Cc1ccccc1)C(=O)O` [H-CHA-Phe-OH] (H-[Cha]-Phe-OH), the Produced peptide result in test [1] (carboxy component 40 mM, amine component 40 mM, reaction time 3 hr) is “+”.

`NC(=O)CC[C@H](NC(=O)[C@@H](N)Cc1ccc(Cl)cc1)C(=O)O` [H-Cl-F-Phe-H-Gln-OH]: in test [2] (carboxy component 25 mM, amine component 50 mM, reaction time 3 hr), the Produced peptide result is given as “tr”.

Take `CC(C)(C)OC(=O)NCCCC[C@H](N)C(=O)N[C@@H](CCC(N)=O)C(=O)O` [H-Lys(Boc)-Gln-OH] (H-Lys(Boc)-Gln-OH): in test [1] (setting [3]), the Produced peptide result was “+”.

With `CN[C@@H](C)C(=O)N[C@@H](Cc1ccccc1)C(=O)O` [H-N-Me-Ala-Phe-OH], the Produced peptide entry in test [2] (setting [4]) was “tr”.

For the compound `CC(C)(C)OC[C@H](N)C(=O)N[C@@H](CCC(N)=O)C(=O)O` [H-Ser(tBu)-Gln-OH] (H-Ser(tBu)-Gln-OH), the Produced peptide result in test [2] (setting [3]) is “tr”.

Turning to `NC(=O)CC[C@H](NC(=O)[C@@H](N)Cc1ccc(F)cc1)C(=O)O` [H-p-F-Phe-H-Gln-OH], the Produced peptide entry in test [2] (setting [4]) is “tr”.

As to `CC(C)(C)[C@H](N)C(=O)N[C@@H](CCC(N)=O)C(=O)O` [H-t-Leu-H-Gln-OH] (H-[Tle]-Gln-OH), the Produced peptide result in test [2] (setting [4]) was “tr”.
